In patent US8193164B2, “Organic compounds” (Novartis AG, priority 2006, dated 2012):
pKi: −log10 of the molar value.

target: adenosine A2A receptor (Homo sapiens, UniProt P29274); test: adenosine A2A receptor agonist assay (method of Murphree et al, Molecular Pharmacology 61, 455-462 (2002)); format: binding; conditions: method described by L. J. Murphree et al, Mol. Pharmacol. 61, 455-462 (2002)
Excerpt: Compounds of formulae (I) and (II) and their pharmaceutically acceptable salts are useful as pharmaceuticals. In particular, they activate the adenosine A2A receptor, i.e. they act as A2A receptor agonists.

Chain of adenosine A2A receptor (P29274 whole entry): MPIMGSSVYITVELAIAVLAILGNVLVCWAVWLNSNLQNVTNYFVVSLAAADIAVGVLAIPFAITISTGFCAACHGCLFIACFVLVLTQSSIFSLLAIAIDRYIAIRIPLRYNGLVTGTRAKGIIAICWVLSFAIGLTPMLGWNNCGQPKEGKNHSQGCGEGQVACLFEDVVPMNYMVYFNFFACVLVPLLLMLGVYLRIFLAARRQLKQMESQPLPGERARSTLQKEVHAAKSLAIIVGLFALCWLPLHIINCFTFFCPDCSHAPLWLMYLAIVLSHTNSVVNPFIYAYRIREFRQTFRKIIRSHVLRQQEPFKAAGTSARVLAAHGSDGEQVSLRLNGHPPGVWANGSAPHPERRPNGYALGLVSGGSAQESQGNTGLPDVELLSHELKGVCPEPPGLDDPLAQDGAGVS

SMILES | pKi
CCC(=O)N[C@H]1C[C@@H](n2cnc3c(NCC(c4ccccc4)c4ccccc4)nc(N4CC[C@@H](NC(=O)NS(=O)(=O)N[C@@H]5CCN(c6nc(NCC(c7ccccc7)c7ccccc7)c7ncn([C@@H]8C[C@H](NC(=O)CC)[C@@H](O)[C@H]8O)c7n6)C5)C4)nc32)[C@H](O)[C@@H]1O [Example 19] | 7.22
CCC(=O)N[C@H]1C[C@@H](n2cnc3c(NC(CO)Cc4ccccc4)nc(N4CC[C@@H](NC(=O)N[C@H]5CCN(c6nc(NC(CO)Cc7ccccc7)c7ncn([C@@H]8C[C@H](NC(=O)CC)[C@@H](O)[C@H]8O)c7n6)C5)C4)nc32)[C@H](O)[C@@H]1O (stereo in doubt) [Example 7] | 8.00
CCC(=O)N[C@H]1C[C@@H](n2cnc3c(NCC(c4ccccc4)c4ccccc4)nc(N4CC[C@@H](NC(=O)NC5CCC(NC(=O)N[C@H]6CCN(c7nc(NCC(c8ccccc8)c8ccccc8)c8ncn([C@@H]9C[C@H](NC(=O)CC)[C@@H](O)[C@H]9O)c8n7)C6)CC5)C4)nc32)[C@H](O)[C@@H]1O (stereo in doubt) [Example 15] | 7.15
CCC(=O)N[C@H]1C[C@@H](n2cnc3c(NCC(c4ccccc4)c4ccccc4)nc(N4CC[C@@H](NC(=O)N[C@@H]5CCN(c6nc(NCC(c7ccccc7)c7ccccc7)c7ncn([C@@H]8C[C@H](NC(=O)CC)[C@@H](O)[C@H]8O)c7n6)C5)C4)nc32)[C@H](O)[C@@H]1O [Example 1] | 8.00
